In patent US20230295058A1, “SYSTEMS AND METHODS FOR GENERATION OF HYPERPOLARIZED COMPOUNDS USING PARAHYDROGEN” (NVISION IMAGING TECHNOLOGIES GMBH, priority 2020, published 2023):
Where two headings read alike, the source gives them in different places.

Experiments:
[1] = cited from earlier work
variety of cell lines = test: cytotoxicity of clean fumarate samples following precipitation; format: cell-based; details: precipitated, washed and redissolved samples, even at high concentrations (FIG. 10)
Procedure: FIG. 10 depicts the results of cytotoxicity experiments performed using samples of precipitated, washed and redissolved sodium fumarate generated in accordance with disclosed embodiments
The clean fumarate samples following precipitation were tested for cytotoxicity using a variety of cell lines. FIG. 10 depicts the result of the cell line experiments.

Row | SMILES | maximal mole fraction in n-heptane ([1]; 14.8° C.) | maximal mole fraction in n-heptane ([1]; −29.2° C.) | cytotoxicity (variety of cell lines)
1 | CC(=O)O [acetic acid] | 0.935 | 0.02 | –
2 | O=C([O-])/C=C/[13C](=O)[O-].[Na+].[Na+] [sodium fumarate, sodium fumarate-1-^13C] | – | – | No toxicity was visible
